Data on 29 compounds can be found in patent publication US7968591B2, “1,3-disubstituted 4-methyl-1H-pyrrole-2-carboxamides and their use in medicaments” (Gruenenthal GmbH, priority 2006, dated 2011).

The target in one experiment is T1, 5-HT uptake (Rattus norvegicus, UniProt P31652).
T1 construct: from tissue; host or cells: rat brain medulla and pons, synaptosomes (P2 fraction)
T1 sequence (P31652 whole entry): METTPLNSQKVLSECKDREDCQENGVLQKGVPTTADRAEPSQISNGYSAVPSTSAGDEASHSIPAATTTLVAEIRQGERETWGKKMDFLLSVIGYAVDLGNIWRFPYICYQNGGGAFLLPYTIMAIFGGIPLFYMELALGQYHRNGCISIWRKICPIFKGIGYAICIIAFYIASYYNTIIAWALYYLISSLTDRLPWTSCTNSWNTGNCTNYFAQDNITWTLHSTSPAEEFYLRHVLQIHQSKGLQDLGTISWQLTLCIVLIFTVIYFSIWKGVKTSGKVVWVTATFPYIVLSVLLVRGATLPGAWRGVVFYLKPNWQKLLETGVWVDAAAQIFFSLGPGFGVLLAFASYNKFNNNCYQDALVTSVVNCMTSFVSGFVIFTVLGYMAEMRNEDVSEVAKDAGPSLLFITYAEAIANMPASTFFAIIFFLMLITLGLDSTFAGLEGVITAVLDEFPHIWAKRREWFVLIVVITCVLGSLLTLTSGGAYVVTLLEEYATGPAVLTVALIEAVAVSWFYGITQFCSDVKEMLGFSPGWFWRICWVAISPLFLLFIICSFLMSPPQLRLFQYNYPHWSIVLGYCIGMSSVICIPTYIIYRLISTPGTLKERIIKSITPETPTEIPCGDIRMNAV
Description: 5-HT uptake inhibition in rat brain synaptosomes. Format: biochemical. As to conditions: synaptosomes from rat medulla and pons, [3H]-5-HT. The source says: (§1) I. Method for Determining Noradrenalin and 5-HT Uptake Inhibition:
(§2) Synaptosomes from rat brain regions were freshly isolated for in vitro studies, as described in the publication “The isolation of nerve endings from brain” by E. G. Gray and V. P. Whittaker, J. Anatomy 96, pages 79-88, 1962. The corresponding literature description is hereby introduced as a reference and is deemed to be part of the disclosure.
(§3) The tissue (hypothalamus for the determination of noradrenalin uptake inhibition and medulla and pons for the determination of 5-HT uptake inhibition) was homogenized in ice-cooled 0.32 M sucrose (100 mg of tissue/1 mL) in a glass homogenizer with Teflon pestle using five complete up and down strokes at 840 revolutions/minute. The homogenate was centrifuged at 4° C. for 10 minutes at 1000 g. After subsequent centrifugation at 17000 g for 55 minutes, the synaptosomes (P2 fraction) were obtained, which were resuspended in 0.32 M glucose (0.5 mL/100 mg of original weight). The particular uptake was measured in a 96-well microtitre plate. The volume was 250 μl and incubation proceeded at room temperature (approx. 20-25° C.) under an O2 atmosphere. The incubation time was 7.5 minutes for [^3H]-NA and 5 minutes for [^3H]-5-HT. The 96 samples were then filtered through a Unifilter GF/B® microtitre plate (Packard) and washed with […] of incubated buffer using a “Brabdel MPXRI-96T Cell-Harvester”. The Unifilter GF/B plate was dried for 1 hour at 55° C. The plate was then sealed with a Back Seal® (Packard) and 35 μl of scintillation fluid were added per well (Ultima Gold®, Packard). After sealing with a top Seal® (Packard) and establishing an equilibrium (around 5 hours), radioactivity was determined in a “Trilux 1450 Microbeta” (Wallac).
(§4) A detailed description of the method may additionally be found in the literature, for example in M. Ch. Frink, H.-H. Hennies, W. Engelberger, M. Haurand and B. Wilffert (1996) Arzneim.-Forsch./Drug Res. 46 (III), 11, 1029-1036.
The compound `COc1ccc(CNC(=O)c2c(-c3ccco3)c(C)cn2Cc2ccc(F)cc2)c(OC)c1` [Example 3, 1-(4-fluorobenzyl)-3-furan-2-yl-4-methyl-1H-pyrrole-2-carboxylic acid 2,4-dimethoxybenzylamide] had an inhibition at 10 µM of 58%.

`CCCCn1cc(C)c(-c2ccc(C)cc2)c1C(=O)NCCc1ccccn1` [Example 4, 1-butyl-4-methyl-3-p-tolyl-1H-pyrrole-2-carboxylic acid (2-pyridin-2-ylethyl)-amide] returned an inhibition at 10 µM of 39%.

Take `Cc1ccc(Cn2cc(C)c(-c3ccc(C)cc3)c2C(=O)N2CCN(c3ccc(C)cc3C)CC2)cc1` [Example 18, [4-(2,4-dimethylphenyl)-piperazin-1-yl]-[4-methyl-1-(4-methylbenzyl)-3-p-tolyl-1H-pyrrol-2-yl]-methanone]: the inhibition at 10 µM is 50%.

Regarding `Cc1ccc(-c2c(C)cn(Cc3c(Cl)cccc3Cl)c2C(=O)N(C)CCc2ccccn2)cc1` [Example 19, 1-(2,6-dichlorobenzyl)-4-methyl-3-p-tolyl-1H-pyrrole-2-carboxylic acid methyl-(2-pyridin-2-ylethyl)-amide], the inhibition at 10 µM worked out at 39%.

Compound `Cc1ccc(-c2c(C)cn(C)c2C(=O)N2CCN(C3CCCCCC3)CC2)cc1` [Example 24, (4-cycloheptylpiperazin-1-yl)-(1,4-dimethyl-3-p-tolyl-1H-pyrrol-2-yl)-methanone] gave an inhibition at 10 µM of 54%.

As to `COc1ccc(-c2c(C)cn(Cc3ccc(F)cc3)c2C(=O)NC(C)C(=O)OCc2ccccc2)cc1` (stereo not shown) [Example 29, 2-{[1-(4-fluorobenzyl)-3-(4-methoxyphenyl)-4-methyl-1H-pyrrole-2-carbonyl]-amino}-propionic acid benzyl ester], at 10 µM the inhibition was 52%.

In turn, `CCn1cc(C)c(-c2ccc(Cl)cc2)c1C(=O)NCc1cccc(OC)c1OC` [Example 34, 3-(4-chlorophenyl)-1-ethyl-4-methyl-1H-pyrrole-2-carboxylic acid 2,3-dimethoxybenzylamide] had an inhibition at 10 µM of 37%.

Take `CCn1cc(C)c(-c2ccc(Cl)cc2)c1C(=O)NC(C(=O)OC(C)(C)C)C(C)C` (stereo not shown) [Example 36, 2-{[3-(4-chlorophenyl)-1-ethyl-4-methyl-1H-pyrrole-2-carbonyl]-amino}-3-methylbutyric acid tert.-butyl ester]: the inhibition at 10 µM was 74%.

The compound `COc1ccc(Cn2cc(C)c(-c3ccco3)c2C(=O)NC2CCCc3ccccc32)cc1` (stereo not shown) [Example 37, 3-furan-2-yl-1-(4-methoxybenzyl)-4-methyl-1H-pyrrole-2-carboxylic acid (1,2,3,4-tetrahydro-naphthalen-1-yl)-amide] gave an inhibition at 10 µM of 68%.

With `COc1ccc(Cn2cc(C)c(-c3ccc(C)cc3)c2C(=O)N(C)CC(=O)OCc2ccccc2)cc1` [Example 39, {[1-(4-methoxybenzyl)-4-methyl-3-p-tolyl-1H-pyrrole-2-carbonyl]-methylamino}-acetic acid benzyl ester], testing at 10 µM gave an inhibition of 54%.

For the compound `CCOc1ccc(Br)cc1CN1CCN(C(=O)c2c(-c3ccccc3)c(C)cn2C)CC1` [Example 41, [4-(5-bromo-2-ethoxybenzyl)-piperazin-1-yl]-(1,4-dimethyl-3-phenyl-1H-pyrrol-2-yl)-methanone], the inhibition at 10 µM was found to be 37%.

Compound `Cc1ccccc1N1CCN(C(=O)c2c(-c3ccc(Cl)cc3)c(C)cn2C)CC1` [Example 46, [3-(4-chlorophenyl)-1,4-dimethyl-1H-pyrrol-2-yl]-(4-o-tolylpiperazin-1-yl)-methanone] displayed an inhibition at 10 µM of 34%.

In turn, `CCOc1ccc(CCNC(=O)c2c(-c3ccc(OC)cc3)c(C)cn2Cc2ccc(F)cc2)cc1` [Example 47, 1-(4-fluorobenzyl)-3-(4-methoxyphenyl)-4-methyl-1H-pyrrole-2-carboxylic acid [2-(4-ethoxyphenyl)-ethyl]-amide] yielded an inhibition at 10 µM of 67%.

As to `COc1cc(OC)c(CN2CCN(C(=O)c3c(-c4ccc(C)cc4)c(C)cn3C)CC2)c(OC)c1` [Example 49, (1,4-dimethyl-3-p-tolyl-1H-pyrrol-2-yl)-[4-(2,4,6-trimethoxybenzyl)-piperazin-1-yl]-methanone], 10 µM produced 30% inhibition.

`Cc1cn(C)c(C(=O)N2CCN(c3ccncc3)CC2)c1-c1ccc(Cl)cc1` [Example 57, [3-(4-chlorophenyl)-1,4-dimethyl-1H-pyrrol-2-yl]-(4-pyridin-4-ylpiperazin-1-yl)-methanone]: the inhibition at 10 µM stood at 66%.

In the case of `Cc1cn(Cc2ccccc2F)c(C(=O)NCCCn2ccnc2)c1-c1ccc(Cl)cc1` [Example 58, 3-(4-chlorophenyl)-1-(2-fluorobenzyl)-4-methyl-1H-pyrrole-2-carboxylic acid (3-imidazol-1-ylpropyl)-amide], the inhibition at 10 µM was determined as 50%.

For `Cc1cn(Cc2ccccc2)c(C(=O)NCCc2ccc(Br)cc2)c1-c1ccco1` [Example 60, 1-benzyl-3-furan-2-yl-4-methyl-1H-pyrrole-2-carboxylic acid [2-(4-bromophenyl)-ethyl]-amide], 10 µM produced 67% inhibition.

`Cc1cn(C)c(C(=O)N2CCN(C3CCCCCC3)CC2)c1-c1ccco1` [Example 61, (4-cycloheptylpiperazin-1-yl)-(3-furan-2-yl-1,4-dimethyl-1H-pyrrol-2-yl)-methanone] registered an inhibition at 10 µM of 52%.

`COc1ccc(OCCNC(=O)c2c(-c3ccccc3)c(C)cn2Cc2ccccc2)cc1` [Example 62, 1-benzyl-4-methyl-3-phenyl-1H-pyrrole-2-carboxylic acid [2-(4-methoxyphenoxy)-ethyl]-amide] displayed an inhibition at 10 µM of 73%.

For the compound `Cc1cn(Cc2ccc(F)cc2)c(C(=O)NCCCN(C)C)c1-c1ccco1` [Example 63, 1-(4-fluorobenzyl)-3-furan-2-yl-4-methyl-1H-pyrrole-2-carboxylic acid (3-dimethylamino-propyl)-amide], the inhibition at 10 µM was determined as 50%.

`COc1ccc(-c2c(C)cn(C)c2C(=O)N2CCN(c3cccc(Cl)c3)CC2)cc1` [Example 70, [4-(3-chlorophenyl)-piperazin-1-yl]-[3-(4-methoxyphenyl)-1,4-dimethyl-1H-pyrrol-2-yl]-methanone]: the inhibition at 10 µM came to 54%.

In a further experiment the target is T2, NA transporter (Rattus norvegicus, UniProt Q63380).
T2 construct: from tissue; host or cells: rat brain hypothalamus, synaptosomes (P2 fraction)
T2 sequence (Q63380 1-617): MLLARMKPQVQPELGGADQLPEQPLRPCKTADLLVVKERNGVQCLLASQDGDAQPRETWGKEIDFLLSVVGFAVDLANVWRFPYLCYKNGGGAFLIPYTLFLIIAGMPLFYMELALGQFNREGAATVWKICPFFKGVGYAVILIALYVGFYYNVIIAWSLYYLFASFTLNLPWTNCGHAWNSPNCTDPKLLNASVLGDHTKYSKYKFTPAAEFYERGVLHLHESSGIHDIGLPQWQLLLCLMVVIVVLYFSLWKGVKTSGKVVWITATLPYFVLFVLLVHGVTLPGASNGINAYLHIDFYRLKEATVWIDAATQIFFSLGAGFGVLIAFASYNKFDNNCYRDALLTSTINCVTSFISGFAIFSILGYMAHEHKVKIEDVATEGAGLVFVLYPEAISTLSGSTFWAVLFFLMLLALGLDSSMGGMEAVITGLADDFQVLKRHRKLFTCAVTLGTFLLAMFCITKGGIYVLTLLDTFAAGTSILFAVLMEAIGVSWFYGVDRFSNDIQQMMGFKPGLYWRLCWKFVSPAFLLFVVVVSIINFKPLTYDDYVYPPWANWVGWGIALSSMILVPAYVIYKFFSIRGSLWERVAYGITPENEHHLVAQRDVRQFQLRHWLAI
Description: Noradrenalin uptake inhibition in rat brain synaptosomes. The format is biochemical. The conditions noted are these: synaptosomes from rat hypothalamus, [3H]-NA.
From the text: as §1, §2, §3, §4
`Cc1cn(Cc2ccccc2)c(C(=O)N2CCN(c3ccccc3Cl)CC2)c1-c1ccc(Cl)cc1` [Example 8, [1-benzyl-3-(4-chlorophenyl)-4-methyl-1H-pyrrol-2-yl]-[4-(2-chlorophenyl)-piperazin-1-yl]-methanone]: at 10 µM the inhibition was 70%.

Compound `Cc1ccc(-c2c(C)cn(C)c2C(=O)N2CCN(C3CCCCCC3)CC2)cc1` [Example 24, (4-cycloheptylpiperazin-1-yl)-(1,4-dimethyl-3-p-tolyl-1H-pyrrol-2-yl)-methanone] came in with an inhibition at 10 µM of 33%.

`Cc1cn(Cc2ccccc2)c(C(=O)NCc2ccccn2)c1-c1ccccc1` [Example 26, 1-benzyl-4-methyl-3-phenyl-1H-pyrrole-2-carboxylic acid (pyridin-2-ylmethyl)-amide] gave an inhibition at 10 µM of 33%.

In the case of `Cc1cn(CC(C)C)c(C(=O)NCc2ccc(N(C)C)cc2)c1-c1ccc(Cl)cc1` [Example 32, 3-(4-chlorophenyl)-1-isobutyl-4-methyl-1H-pyrrole-2-carboxylic acid 4-dimethylaminobenzylamide], the inhibition at 10 µM was 35%.

`COc1ccc(-c2c(C)cn(Cc3ccc(F)cc3)c2C(=O)NCCc2cccs2)cc1` [Example 35, 1-(4-fluorobenzyl)-3-(4-methoxyphenyl)-4-methyl-1H-pyrrole-2-carboxylic acid (2-thiophen-2-ylethyl)-amide]: 10 µM produced 37% inhibition.

The compound `Cc1ccccc1N1CCN(C(=O)c2c(-c3ccc(Cl)cc3)c(C)cn2C)CC1` [Example 46, [3-(4-chlorophenyl)-1,4-dimethyl-1H-pyrrol-2-yl]-(4-o-tolylpiperazin-1-yl)-methanone] registered an inhibition at 10 µM of 63%.

Take `Cc1cn(C)c(C(=O)N2CCN(C3CCCCCC3)CC2)c1-c1ccco1` [Example 61, (4-cycloheptylpiperazin-1-yl)-(3-furan-2-yl-1,4-dimethyl-1H-pyrrol-2-yl)-methanone]: the inhibition at 10 µM came out at 34%.

`Cc1cn(Cc2ccc(F)cc2)c(C(=O)NCCCN(C)C)c1-c1ccco1` [Example 63, 1-(4-fluorobenzyl)-3-furan-2-yl-4-methyl-1H-pyrrole-2-carboxylic acid (3-dimethylamino-propyl)-amide] yielded an inhibition at 10 µM of 57%.

For `CCN(CC)CCCNC(=O)c1c(-c2ccc(Cl)cc2)c(C)cn1CC(C)C` [Example 65, 3-(4-chlorophenyl)-1-isobutyl-4-methyl-1H-pyrrole-2-carboxylic acid (3-diethylamino-propyl)-amide], testing at 10 µM gave an inhibition of 35%.

For `COc1ccc(-c2c(C)cn(C)c2C(=O)N2CCN(c3cccc(Cl)c3)CC2)cc1` [Example 70, [4-(3-chlorophenyl)-piperazin-1-yl]-[3-(4-methoxyphenyl)-1,4-dimethyl-1H-pyrrol-2-yl]-methanone], testing at 10 µM gave an inhibition of 69%.

With `Cc1cn(C)c(C(=O)NCCCN2CCCCC2C)c1-c1ccc(Cl)cc1` (stereo not shown) [Example 78, 3-(4-chlorophenyl)-1,4-dimethyl-1H-pyrrole-2-carboxylic acid [3-(2-methylpiperidin-1-yl)-propyl]-amide], at 10 µM the inhibition was 32%.

Compound `Cc1cn(C)c(C(=O)NCc2ccc(F)cc2C(F)(F)F)c1-c1ccco1` [Example 80, 3-furan-2-yl-1,4-dimethyl-1H-pyrrole-2-carboxylic acid 4-fluoro-2-trifluoromethylbenzylamide] showed an inhibition at 10 µM of 30%.

As for `Cc1cn(Cc2ccccc2)c(C(=O)NC(C)c2ccc3ccccc3c2)c1-c1ccco1` (stereo not shown) [Example 81, 1-benzyl-3-furan-2-yl-4-methyl-1H-pyrrole-2-carboxylic acid (1-naphthalen-2-ylethyl)-amide], the inhibition at 10 µM came to 57%.

As usually defined, the inhibition is the percentage by which the read-out fell short of the control. Lower therefore signals a weak effect.
